Source: patent US20030078274A1, “Method of reducing neuronal injury or apoptosis” (priority 1999, published 2003)

What was measured:
[1] = tested on: neurons in rat cerebrocortical cultures (gp120-induced apoptosis); assay: gp120-induced neuronal apoptosis in rat cerebrocortical cultures; format: cell-based, Sprague-Dawley rats; settings: for effect on neuronal apoptosis induced by gp120: gp120 200 pM, 24 h
Experimental: The model used in the assays described below, i.e., rat cerebrocortical cultures, was prepared from embryos of Sprague-Dawley rats at day 15 to 17 of gestation. See Lei et al., Neuron 8:1087-1099 (1992) and Lipton et al., Nature 364:626-632 (1993). Cultures were used for experiments after 17 to 24 days in culture. […] Prior to some experiments, macrophages/microglia or neurons were depleted from the cultures by exposure to 7.5 mM L-leucine methyl ester or 2 mM N-methyl-D-aspartate (NMDA), respectively. See Lipton, NeuroReport 3:913-915 (1992). […] In some experiments, the Griess reaction was used to measure nitrite levels in the culture medium as an index of nitric oxide (NO) release. See Chao et al., Glia 16:276-284 (1996).
Cultures were transferred into Earle's Balanced Salt Solution (EBSS) and incubated for 24 hours with gp120, chemokines, Tuftsin fragment 1-3, i.e., Thr-Lys-Pro (TKP), p38 MAPK inhibitor SB 203580 (i.e., 4-(4-fluorophenyl)-2-(4-methylsulfinylphenyl)-5-(4-pyridyl)imidazole, Calbiochem, San Diego, Calif.), or combinations thereof. Chemokines or TKP were applied for 5 minutes and SB 203580 for 15 minutes prior to gp120 exposure.
TKP was obtained from Sigma (St. Louis, Mo.). Recombinant human MIP-1β, SDF-1α, SDF-1β, and recombinant rat RANTES were purchased from R&D systems ([…].) and Endogen (Woburn, Mass.), respectively. HIV-1 envelope glycoprotein gp120 from the strain SF2 was obtained from the NIH AIDS Research and Reference Reagent Program, Division of AIDS, NIAID, NIH. See Scandella et al., AIDS Res. Hum. Retroviruses 9:1233-1244 (1993). Additional gp120s from HIV-1 strains IIIB and RF2 were obtained from Genetech and the National Cancer Institute, respectively. TNFα, IFNγ, and IL-1β were from Genzyme (Cambridge, Mass.), Gibco BRL (Grand Island, N.Y.) and Endogen (Woburn, Mass.), respectively.
Neuronal apoptosis in the above-described assays was assessed using a variety of techniques, e.g., staining of permeabilized cells with propidium iodide to determine apoptotic morphology, and a neuron-specific antibody (against NeuN or MAP-2) to identify cell type. In brief, cells were fixed for 5 minutes with ice-cold acetone at −20° C. and, after three washes in PBS, for 4 minutes with 2% (w/v) paraformaldehyde solution in PBS at room temperature (RT). Acetone-paraformaldehyde-fixed cells were permeabilized using 0.2% Tween 20 in PBS (PBST), and non-specific binding sites were blocked by incubation for 1 hour with a 10% solution of heat-inactivated goat serum in PBST. To specifically stain neurons, cells were then incubated for 4 hours at RT or overnight at 4° C. with 1:500 dilutions of anti-MAP-2 (Sigma) or anti-NeuN monoclonal antibody (mAb; Chemicon, Temecula, Calif.). Their respective non-specific isotype antibodies served as controls. After three washes, the cells were incubated in a secondary polyclonal antibody (pAb) conjugated either to fluorescein isothiocyanate (FITC) or to horseradish peroxidase (HRP). In the case of HRP-coupled pAb, diaminobenzidine (DAB) served as the color substrate developed by incubation in a mixture of 1 mg/ml DAB and 0.8% H2O2 at a ratio of 3:1. Cellular nuclei were subsequently stained with […] propidium iodide for 5 minutes in the dark, and then coverslips were mounted on glass slides. Experiments were replicated at least 3 times with triplicate values in each experiment. Statistical significance was judged by an analysis of variance (ANOVA) followed by a Scheffé or Bonferroni/Dunn post hoc test.

[2] = tested on: neurons in rat cerebrocortical cultures (SDF-1-induced apoptosis); assay: SDF-1-induced neuronal apoptosis in rat cerebrocortical cultures; format: cell-based, Sprague-Dawley rats; settings: TKP
Experimental: (§1) The model used in the assays described below, i.e., rat cerebrocortical cultures, was prepared from embryos of Sprague-Dawley rats at day 15 to 17 of gestation. See Lei et al., Neuron 8:1087-1099 (1992) and Lipton et al., Nature 364:626-632 (1993). Cultures were used for experiments after 17 to 24 days in culture. These cultures contain neurons, astrocytes, and macrophages/microglia, as determined with specific immunolabeling. Prior to some experiments, macrophages/microglia or neurons were depleted from the cultures by exposure to 7.5 mM L-leucine methyl ester or 2 mM N-methyl-D-aspartate (NMDA), respectively. See Lipton, NeuroReport 3:913-915 (1992). Absence of macrophages/microglia or neurons in these cultures was confirmed immunocytochemically, using antibodies to ED-1 and microtubule-associated protein-2 (MAP-2), respectively. In some experiments, the Griess reaction was used to measure nitrite levels in the culture medium as an index of nitric oxide (NO) release. See Chao et al., Glia 16:276-284 (1996). […]
(§2) Neuronal apoptosis in the above-described assays was assessed using a variety of techniques, e.g., staining of permeabilized cells with propidium iodide to determine apoptotic morphology, and a neuron-specific antibody (against NeuN or MAP-2) to identify cell type. […]

[3] = tested on: cytokine-activated astrocytes; assay: NO release (nitrite, Griess reaction) by cytokine-activated astrocytes; format: cell-based, Sprague-Dawley rats; settings: in the absence of macrophages/microglia
Experimental: (§3) The model used in the assays described below, i.e., rat cerebrocortical cultures, was prepared from embryos of Sprague-Dawley rats at day 15 to 17 of gestation. See Lei et al., Neuron 8:1087-1099 (1992) and Lipton et al., Nature 364:626-632 (1993). Cultures were used for experiments after 17 to 24 days in culture. These cultures contain neurons, astrocytes, and macrophages/microglia, as determined with specific immunolabeling. Prior to some experiments, macrophages/microglia or neurons were depleted from the cultures by exposure to 7.5 mM L-leucine methyl ester or 2 mM N-methyl-D-aspartate (NMDA), respectively. See Lipton, NeuroReport 3:913-915 (1992). Absence of macrophages/microglia or neurons in these cultures was confirmed immunocytochemically, using antibodies to ED-1 and microtubule-associated protein-2 (MAP-2), respectively. In some experiments, the Griess reaction was used to measure nitrite levels in the culture medium as an index of nitric oxide (NO) release. See Chao et al., Glia 16:276-284 (1996).

[4] = tested on: neurons (NMDA-induced apoptosis); assay: NMDA-induced neuronal apoptosis in cerebrocortical cultures; format: cell-based, Sprague-Dawley rats
Experimental: as §3, §2

p38 = p38 phosphorylation/activation in retina after axotomy; format: in vivo, Long-Evans rats; settings: MK801 intravitreal after axotomy
Experimental: (§4) One day after axotomy, activated (di-phosphorylated) p38 was visualized by immunocytochemistry in the RGC layer, but not in control retinas. By Western blotting, phosphorylated p38 was first detected 12 hours after axotomy and reached a maximum at 24 hours before decreasing. SB 203580 was administered intravitreally at the time of axotomy, and repeated at 5 days and 10 days.
(§5) Drug application. Intravitreal injections were carried out using a 33-gauge needle attached to a 25 μl syringe following pupil dilation with 1% atropine sulfate. The tip of the needle was inserted through the dorsal limbus of the eye under stereomicroscopic visualization. Injections were completed over a period of 1 min. Intravitreal injections of SB 203580 (Calbiochem, San Diego, Calif.), MK801 (Research Biochemicals International, Natick, Mass.) or control solutions (as an equal volume of saline diluent) were performed on operated eyes immediately after axotomy, and repeated 5 and 10 days post axotomy.
Immunohistochemistry. After enucleation, the eyes were immersed in fixative composed of 4% paraformaldehyde in phosphate-buffered saline (PBS; pH 7.4) at 4° C. Ten minutes later, the eyes were hemisected in the fixative, and the anterior segment, lens and vitreous body were discarded. The remaining posterior eyecup was kept in fresh fixative solution overnight at 4° C. The eyecup was then embedded in paraffin. […]

[5] = tested on: retinal ganglion cells (RGCs); assay: Optic nerve axotomy model of glaucoma: RGC survival in vivo; parameters: species or system Long-Evans rats; settings: MK801 intravitreal; 14 days post axotomy
Text: As a model for studying treatment of glaucoma, damaged (axotomized) retinal ganglion cells were employed. Specifically, transection of the optic nerve close to the cell body causes apoptotic death of retinal ganglion cells (RGCs), similar to that found in glaucoma. […] Three days later, the left optic nerve was intraorbitally transected 1 mm from the globe. One day after axotomy, no remarkable change in the fluorescence pattern of RGCs was seen compared to that of controls. RGC density, as assessed by the number of fluorescently-labeled cells, began to decline between 4 and 7 days post axotomy. By 14 days, a substantial number of fluorescently-labeled RGCs appeared to have been lost. Morphologically, in whole-mounted retinas stained with cresyl violet, ganglion cell layer (GCL) of unlesioned control retinas manifest no apoptotic profiles or pyknotic nuclei. In contrast, by 10 days after axotomy, multiple degenerating cell bodies with pyknotic nuclei were apparent in the GCL, and the cell density in this layer appeared to be greatly diminished. When hydroxystilbamidine fluorescence in the GCL was quantified, in unlesioned control retinas the mean RGC density was 2533±104 cells/mm^2 (mean±SD). Within 14 days of axotomy, the mean RGC density decreased to 348±107 (14% of control).
as §4
Retrograde labeling of retinal ganglion cells. Adult male Long-Evans rats weighing 200 to 250 g were obtained from a local breeder and, for all experimental manipulations, were anesthetized with 1-2% isoflurane and 70% N2O. RGCs were retrogradely labeled with hydroxystilbamidine (Molecular Probes, Eugene, Oreg., also known as Fluoro-Gold™) to allow accurate counting of cell bodies as described in Vorwerk et al., Invest. Ophthalmol. Vis. Sci. 40:813-816. Rats were anesthetized and placed in a small stereotactic instrument. The skull was exposed and kept dry. The bregma was identified and marked, and a small window was drilled above the right hemisphere, leaving the dura intact.
Axotomy. Optic nerve axotomy was performed on the left eye 4 days after retrograde labeling. After incision of the dorsolateral conjunctiva, the lateral extraocular muscle was transected, and the optic nerve was exposed under a stereoscopic microscope. The optic nerve was then transected at a distance of about 1 mm from the eye bulb. During the operation, care was taken to avoid damage to the retinal blood supply.
as §5
Quantification of axotomized RGC survival and histology. […]

[6] = tested on: neurons in rat cerebrocortical cultures; assay: Neuronal apoptosis assay, chemokine alone versus control; format: cell-based, Sprague-Dawley rats; settings: α-chemokine 20-50 nM, 24 h
Experimental: as §1, §2

[7] = β-chemokine at 20 nM applied 5 min before gp120

Thr-Lys-Pro [TKP]
effect on gp120-induced neuronal apoptosis ([1]; TKP 50 μM, applied 5 min before gp120): protected neurons from gp120-induced apoptosis
effect on SDF-1β-induced neuronal apoptosis [2]: not abrogated
effect on NO release by cytokine-activated astrocytes [3]: did not inhibit NO release
effect on NMDA-induced neuronal apoptosis [4]: did not interfere

COc1cccc(-c2cc(=O)c3ccccc3o2)c1N [PD 98059, 2′-amino-3′-methoxyflavone]
effect on gp120SF2-induced neuronal apoptosis ([1]; PD 98059 2 μM): only SB 203580 substantially attenuated

RANTES
effect on neuronal apoptosis induced by gp120 [1, 7]: abrogated

C[C@]12N[C@H](Cc3ccccc31)c1ccccc12 [MK801]
p38 phosphorylation/activation (p38): inhibited p38 phosphorylation/activation in a dose-dependent manner
number of surviving RGCs [5]: increased the number of surviving RGCs

SDF-1α
effect on neuronal apoptosis induced by gp120 ([1]; α-chemokine at 20-50 nM): did not reduce neuronal damage or apoptosis
increase in neuronal apoptosis compared to control [6]: approximately 2 fold

S=C(S)N1CCCC1 [PDTC, pyrrolidine dithiocarbamate]
effect on gp120SF2-induced neuronal apoptosis ([1]; PDTC 5 μM): only SB 203580 substantially attenuated

B1: MIP-1β: recombinant human MIP-1β, β-chemokine (protein, UniProt P13236 24-92, looked up)
C-C motif chemokine 4: APMGSDPPTACCFSYTARKLPRNFVVDYYETSSLCSQPAVVFQTKRSKQVCADPSESWVQEYVYDLELN
effect on neuronal apoptosis induced by gp120 [1, 7]: abrogated
